Results on two compounds are retold here after ChEMBL document CHEMBL4024759, “One-Bead-Two-Compound Thioether Bridged Macrocyclic γ-AApeptide Screening Library against EphA2” (J Med Chem, 2017).

The subject of experiment [1] is C13. Briefly: Antimigratory activity in human C13 cells assessed as delay in wound closure at 15 uM after 24 hrs by scratch-wound motility assay. The class given is functional.
Experiment [2] deals with C13. Description: Antimigratory activity in human C13 cells after 24 hrs by scratch-wound motility assay. Format: functional, cell-based.
Experiment [3] concerns C13. Briefly: Antimigratory activity in human C13 cells at 10 uM by scratch-wound motility assay. The class given is functional, cell-based. To be noted: TDE = time-dependent effect.
Experiment [4] is described as follows: Binding affinity to GST (unknown origin) by fluorescence polarization assay. The arrangement: species or system Homo sapiens. (In general: In fluorescence polarisation assays a small probe gives low polarisation when free and higher when bound to something large.)
The target of experiment [5] is Ephrin type-A receptor 2 (Homo sapiens, UniProt P29317). Description: Binding affinity to recombinant human GST-tagged EphA2 cytoplasmic domain (560 to 976 residues) expressed in baculovirus expression system by fluorescence polarization assay.
Experiment [6] deals with T1, NF-kappa-B inhibitor alpha (Homo sapiens, UniProt P25963).
T1 sequence (P25963 whole entry): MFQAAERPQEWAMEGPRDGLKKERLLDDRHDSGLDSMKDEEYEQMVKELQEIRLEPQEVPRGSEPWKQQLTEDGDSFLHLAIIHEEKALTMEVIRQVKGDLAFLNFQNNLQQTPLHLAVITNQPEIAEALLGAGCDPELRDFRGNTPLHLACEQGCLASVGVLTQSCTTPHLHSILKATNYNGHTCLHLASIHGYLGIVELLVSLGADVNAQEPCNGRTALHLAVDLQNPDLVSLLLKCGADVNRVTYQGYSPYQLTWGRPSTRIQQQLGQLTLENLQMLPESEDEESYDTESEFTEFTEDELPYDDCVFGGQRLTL
Briefly: Binding affinity to NFKBIA (unknown origin).

Experiment [7] addresses RAC-alpha serine/threonine-protein kinase (Homo sapiens, UniProt P31749). Briefly: Binding affinity to AKT1 (unknown origin).
For experiment [8], the species on record is Homo sapiens. Briefly: Selectivity ratio of Kd for GST (unknown origin) to Kd for recombinant human GST-tagged EphA2 cytoplasmic domain (560 to 976 residues) expressed in baculovirus expression system.

Chain of RAC-alpha serine/threonine-protein kinase (P31749 whole entry, the tested form may be a part): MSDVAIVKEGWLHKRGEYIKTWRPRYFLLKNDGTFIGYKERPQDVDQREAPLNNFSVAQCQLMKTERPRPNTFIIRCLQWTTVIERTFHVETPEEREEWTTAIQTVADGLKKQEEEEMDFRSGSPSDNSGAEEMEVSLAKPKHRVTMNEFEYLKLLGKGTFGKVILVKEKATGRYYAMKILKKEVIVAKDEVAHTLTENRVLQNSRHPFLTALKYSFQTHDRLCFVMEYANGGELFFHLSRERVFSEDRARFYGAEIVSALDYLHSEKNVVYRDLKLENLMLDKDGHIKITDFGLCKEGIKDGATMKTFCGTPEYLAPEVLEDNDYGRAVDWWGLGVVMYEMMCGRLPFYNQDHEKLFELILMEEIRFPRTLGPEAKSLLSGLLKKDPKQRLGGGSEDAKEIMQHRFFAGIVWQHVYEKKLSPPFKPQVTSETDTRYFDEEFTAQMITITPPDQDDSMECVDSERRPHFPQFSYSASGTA
Chain of Ephrin type-A receptor 2 (P29317 whole entry, the tested form may be a part): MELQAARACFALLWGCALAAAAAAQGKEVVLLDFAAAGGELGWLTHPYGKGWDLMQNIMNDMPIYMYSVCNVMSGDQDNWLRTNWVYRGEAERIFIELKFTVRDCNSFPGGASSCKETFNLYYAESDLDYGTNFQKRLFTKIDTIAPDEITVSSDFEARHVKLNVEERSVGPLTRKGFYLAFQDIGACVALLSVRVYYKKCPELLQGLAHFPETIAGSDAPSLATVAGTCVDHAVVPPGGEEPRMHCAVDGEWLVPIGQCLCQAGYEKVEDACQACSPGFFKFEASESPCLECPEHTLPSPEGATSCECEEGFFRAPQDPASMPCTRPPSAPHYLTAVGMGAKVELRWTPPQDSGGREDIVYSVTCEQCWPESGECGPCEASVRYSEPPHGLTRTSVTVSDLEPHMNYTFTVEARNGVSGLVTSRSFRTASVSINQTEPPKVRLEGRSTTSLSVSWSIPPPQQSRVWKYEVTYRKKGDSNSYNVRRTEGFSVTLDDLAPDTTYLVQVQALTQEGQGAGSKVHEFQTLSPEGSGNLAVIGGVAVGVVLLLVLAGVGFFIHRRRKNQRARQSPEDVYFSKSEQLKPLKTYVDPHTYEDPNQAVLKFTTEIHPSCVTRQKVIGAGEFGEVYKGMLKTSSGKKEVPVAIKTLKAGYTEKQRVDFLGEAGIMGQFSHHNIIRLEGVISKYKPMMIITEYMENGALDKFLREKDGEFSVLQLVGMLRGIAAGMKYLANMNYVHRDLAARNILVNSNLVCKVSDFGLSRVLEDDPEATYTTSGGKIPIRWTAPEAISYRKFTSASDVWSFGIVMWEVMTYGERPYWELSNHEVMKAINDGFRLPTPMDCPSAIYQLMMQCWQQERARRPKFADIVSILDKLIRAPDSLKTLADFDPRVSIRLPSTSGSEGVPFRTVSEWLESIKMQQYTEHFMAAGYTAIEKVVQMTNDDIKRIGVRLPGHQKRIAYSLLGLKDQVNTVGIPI

For the compound `NC(=O)CN1C[C@H](Cc2ccccc2)NC(=O)CN(C(=O)CCC(=O)O)C[C@H](CCC(=O)O)NC(=O)CN(C(=O)Cc2ccc3c(c2)OCO3)C[C@H](CCC(=O)O)NC(=O)CN(C(=O)CCC2CCCCC2)C[C@H](Cc2ccccc2)NC(=O)c2ccc(cc2)CSCCC1=O`, the Activity in experiment [1] is 70%; in experiment [2], “Dose-dependent effect”; in experiment [3], “Tde”.

By Kd is commonly meant the concentration at which binding is half-saturated. With `NC(=O)[C@H](CCCCNC(=S)Nc1ccc(-c2c3ccc(=O)cc-3oc3cc(O)ccc23)c(C(=O)O)c1)NC(=O)CN1C[C@H](Cc2ccccc2)NC(=O)CN(C(=O)CCC(=O)O)C[C@H](CCC(=O)O)NC(=O)CN(C(=O)Cc2ccc3c(c2)OCO3)C[C@H](CCC(=O)O)NC(=O)CN(C(=O)CCC2CCCCC2)C[C@H](Cc2ccccc2)NC(=O)c2ccc(cc2)CSCCC1=O`, the Kd turned out to be 14200 nM in experiment [4], 81 nM in experiment [5], 741 nM in experiment [6] and 3620 nM in experiment [7]. In experiment [8], the Selectivity ratio was 170.
